# Measurements published in patent US20130078287A1 (Horizon Pharma USA, Inc., priority 2010, published 2013).
# Marks after values point to notes of the source that are not given here.
# Tests used:
# [1] = system: subjects expected to require daily NSAID therapy; assay: REDUCE-1 study: endoscopically diagnosed gastric, duodenal and UGI ulcers; type: in vivo, human; details: for Proportion of subjects with Duodenal Ulcer / Proportion of subjects with Gastric Ulcer / Proportion of subjects with UGI Ulcer / UGI Ulcer: Subjects with Low-dose Aspirin Use / UGI Ulcer: Subjects with Prior Ulcer: REDUCE-1, 24 weeks
# Method: Subjects were deemed a treatment failure and terminated early from the study in the event they developed an endoscopically diagnosed UGI ulcer. Subjects who terminated early for reasons other than development of an endoscopically diagnosed UGI ulcer were to undergo an endoscopic examination at a termination visit that was conducted as soon as possible after administration of their final dose of study drug. The predefined population for primary analyses of ulcers was all subjects with ≧1 follow-up study endoscopy.
# [2] = system: subjects expected to require daily NSAID therapy; assay: Pooled REDUCE-1 and REDUCE-2: UGI ulcers by subgroup; type: in vivo, human; details: for Subjects who developed an upper gastrointestinal ulcer: clinical studies of HZT-501; for Proportion of subjects who developed at least one UGI ulcer: pooled, Week 24 life table
# Source text: In addition to examining potential risk factors together in a statistical model, the effect of treatment was examined in the combined studies overall and within various subgroups of interest. These subgroups included age category (<65, […]), prior history of UGI ulcer (yes, no), use of low-dose aspirin (LDA) (yes, no), and gender. […] Treatment was the only factor included in the model.
# [3] = system: subjects expected to require daily NSAID therapy; assay: REDUCE-1 study: adverse events
# Source text: (§1) Randomization was stratified based on aspirin/anticoagulant therapy and prior ulcer history.
# Secondary endpoints were UGI ulcers, duodenal ulcers, and serious GI complications
# [4] = system: subjects expected to require daily NSAID therapy; assay: REDUCE-2 study: adverse events
# Source text: as §1
# Secondary endpoints were gastric ulcers, duodenal ulcers, and serious GI complications.
# [5] = system: subjects expected to require daily NSAID therapy; assay: Integrated REDUCE-1 and REDUCE-2: adverse events
# [6] = crude proportion, listed as ibuprofen
# [7] = life table estimate, listed as ibuprofen
# [8] = REDUCE-1, early drop-outs imputed as treatment failures
# [9] = integrated REDUCE-1 and REDUCE-2
structure (smiles),measurement,setting,value
"CC(C)Cc1ccc(C(C)C(=O)O)cc1 (stereo not shown) [Ibuprofen, 2-(p-isobutylphenyl)propionic acid]",Proportion of subjects with Duodenal Ulcer,[1]; crude proportion,14/262 (5.3%);
same,Proportion of subjects with Gastric Ulcer,[1]; crude proportion,52/262 (19.8%);
same,Proportion of subjects with UGI Ulcer,[1]; crude proportion,61/262 (23.3%)*;
same,UGI Ulcer: Subjects with Low-dose Aspirin Use,[1]; crude proportion,10/32 (31.3%);
same,UGI Ulcer: Subjects with Prior Ulcer,[1]; crude proportion,4/15 (26.7%);
same,Proportion of subjects with Duodenal Ulcer,[1]; [6],5.3%
same,Proportion of subjects with Gastric Ulcer,[1]; [6],19.8%
same,Proportion of subjects with UGI Ulcer,[1]; [6],23.3%
same,Proportion of subjects with Duodenal Ulcer,[1]; life table estimate,7.1%
same,Proportion of subjects with Gastric Ulcer,[1]; life table estimate,25.3%
same,Proportion of subjects with UGI Ulcer,[1]; life table estimate,29.1%*
same,UGI Ulcer: Subjects with Low-dose Aspirin Use,[1]; life table estimate,33.3%
same,UGI Ulcer: Subjects with Prior Ulcer,[1]; life table estimate,27.3%
same,Proportion of subjects with Duodenal Ulcer,[1]; [7],7.1%
same,Proportion of subjects with Gastric Ulcer,[1]; [7],25.3%
same,Proportion of subjects with UGI Ulcer,[1]; [7],29.1%
same,"Crude ulcer rate, UGI ulcer",[1]; [8],30.2%
same,"Crude ulcer rate, gastric ulcers",[1]; [8],26.7%
same,"NSAID associated serious GI complications, % of subjects","[1]; REDUCE-1, secondary efficacy endpoint",none
same,Subjects who developed an upper gastrointestinal ulcer,[2]; subjects who used low-dose aspirin,35%
same,Subjects who developed an upper gastrointestinal ulcer,[2]; subjects with a prior history of gastrointestinal ulcer,24%
same,Proportion of subjects who developed at least one UGI ulcer,[2]; Age <65 years,26.3%
same,Proportion of subjects who developed at least one UGI ulcer,[2]; Age ≧65 years,26.6%
same,Proportion of subjects who developed at least one UGI ulcer,"[2]; Age ≧65 years, listed as ibuprofen",27%
same,Proportion of subjects who developed at least one UGI ulcer,[2]; Female,28.3%
same,Proportion of subjects who developed at least one UGI ulcer,[2]; Race Other,13.3%
same,"AEs Leading to Discontinuation, Incidence (%)",[3],7.7%
same,"AEs by Relatedness: Possibly Related, Incidence (%)",[3],23.1%
same,"AEs by Relatedness: Probably Not Related, Incidence (%)",[3],38.1%
same,"AEs by Severity: Life Threatening, Incidence (%)",[3],0.7%
same,"AEs by Severity: Moderate, Incidence (%)",[3],27.1%
same,"AEs by Severity: Severe, Incidence (%)",[3],7.0%
same,"Abdominal Pain Upper, Incidence (%)",[3],4.0%
same,"Any GI Event, Incidence (%)",[3],27.4* %
same,"Cardiac Disorders, Incidence (%)",[3],1.3%
same,"Constipation, Incidence (%)",[3],4.3%
same,"Deaths, Incidence %",[3],1/0.1%
same,"Diarrhea, Incidence (%)",[3],4.3%
same,"Dyspepsia, Incidence (%)",[3],7.7%
same,"General Disorders/Administrative Site Conditions, Incidence (%)",[3],7.7%
same,"Hepatobiliary Disorders, Incidence (%)",[3],0.0%
same,"Hypertension, Incidence (%)",[3],2.3%
same,"Injury, Poisoning, Procedural Complications, Incidence (%)",[3],6.0%
same,"Investigations, Incidence (%)",[3],5.0%
same,"Musculoskeletal/connective Tissue Disorders, Incidence (%)",[3],8.0%
same,"Nausea, Incidence (%)",[3],4.3%
same,"Nervous System Disorders, Incidence (%)",[3],7.0%
same,"Renal and Urinary Disorders, Incidence (%)",[3],1.0%
same,"Respiratory, Thoracic and Mediastinal Disorders, Incidence (%)",[3],8.7%
same,"SAEs leading to discontinuation, Incidence %",[3],2/0.7%
same,"Subjects with at least one AE, Incidence (%)",[3],61.2%
same,"Total SAEs, Incidence %",[3],13/4.3%
same,"Withdrawals due to GI, Incidence (%)",[3],5.0%
same,"AEs Leading to Discontinuation, Incidence (%)",[4],7.1%
same,"AEs by Severity: Life Threatening, Incidence (%)",[4],0.0%
same,"AEs by Severity: Moderate, Incidence (%)",[4],21.7%
same,"AEs by Severity: Severe, Incidence (%)",[4],6.6%
same,"Abdominal Pain Upper, Incidence (%)",[4],1.9%
same,"Any GI Event, Incidence (%)",[4],29.7* %
same,"Cardiac Disorders, Incidence (%)",[4],0.5%
same,"Constipation, Incidence (%)",[4],3.8%
same,"Deaths, Incidence %",[4],0/0.0%
same,"Diarrhea, Incidence (%)",[4],4.2%
same,"Dyspepsia, Incidence (%)",[4],8.5** %
same,"General Disorders/Administrative Site Conditions, Incidence (%)",[4],3.8%
same,"Hepatobiliary Disorders, Incidence (%)",[4],0.0%
same,"Hypertension, Incidence (%)",[4],1.9%
same,"Infections/Infestations, Incidence (%)",[4],19.3%
same,"Injury, Poisoning, Procedural Complications, Incidence (%)",[4],3.8%
same,"Investigations, Incidence (%)",[4],2.4%
same,"Musculoskeletal/connective Tissue Disorders, Incidence (%)",[4],5.2%
same,"Nausea, Incidence (%)",[4],5.2%
same,"Nervous System Disorders, Incidence (%)",[4],4.7%
same,"Renal and Urinary Disorders, Incidence (%)",[4],0.0%
same,"Respiratory, Thoracic and Mediastinal Disorders, Incidence (%)",[4],4.7%
same,"SAEs leading to discontinuation, Incidence %",[4],2/0.9%
same,"Subjects with at least one AE, Incidence (%)",[4],54.7%
same,"Total SAEs, Incidence %",[4],4/1.9%
same,"Withdrawals due to GI, Incidence (%)",[4],5.2*** %
same,"AEs Leading to Discontinuation, Incidence (%)",[5]; [9],7.6%
same,"AEs by Relatedness: Possibly Related, Incidence (%)",[5]; [9],25.0%
same,"AEs by Relatedness: Probably Not Related, Incidence (%)",[5]; [9],33.7%
same,"AEs by Severity: Life Threatening, Incidence (%)",[5]; [9],0.4%
same,"AEs by Severity: Moderate, Incidence (%)",[5]; [9],25.0%
same,"AEs by Severity: Severe, Incidence (%)",[5]; [9],6.8%
same,"Subjects with at least one AE, Incidence (%)",[5]; [9],58.7%
same,TEAE: Abdominal distension,"[5]; integrated, safety population",1.4 (7) %
same,TEAE: Abdominal pain,"[5]; integrated, safety population",1.6 (8) %
same,TEAE: Abdominal pain upper,"[5]; integrated, safety population",2.5 (13) %
same,TEAE: Abdominal tenderness,"[5]; integrated, safety population",1.0 (5) %
same,TEAE: Anaemia,"[5]; integrated, safety population",1.4 (7) %
same,TEAE: Arthralgia,"[5]; integrated, safety population",1.8 (9) %
same,TEAE: Back pain,"[5]; integrated, safety population",0.8 (4) %
same,TEAE: Blood and lymphatic system disorders,"[5]; integrated, safety population",1.8 (9) %
same,TEAE: Bronchitis,"[5]; integrated, safety population",1.2 (6) %
same,TEAE: Constipation,"[5]; integrated, safety population",4.1 (21) %
same,TEAE: Cough,"[5]; integrated, safety population",2.0 (10) %
same,TEAE: Diarrhoea,"[5]; integrated, safety population",4.3 (22) %
same,TEAE: Dizziness,"[5]; integrated, safety population",1.4 (7) %
same,TEAE: Dyspepsia,"[5]; integrated, safety population",8.0 (41) %
same,TEAE: Dyspnoea,"[5]; integrated, safety population",1.0 (5) %
same,TEAE: Fall,"[5]; integrated, safety population",1.0 (5) %
same,TEAE: Fatigue,"[5]; integrated, safety population",1.0 (5) %
same,TEAE: Flatulence,"[5]; integrated, safety population",0.4 (2) %
same,TEAE: Gastritis,"[5]; integrated, safety population",1.4 (7) %
same,TEAE: Gastro-oesophageal reflux disease,"[5]; integrated, safety population",3.1 (16) %
same,TEAE: Gastroenteritis viral,"[5]; integrated, safety population",0.8 (4) %
same,TEAE: Gastrointestinal disorders,"[5]; integrated, safety population",28.4 (145) %
same,TEAE: General disorders and administration site conditions,"[5]; integrated, safety population",4.5 (23) %
same,TEAE: Headache,"[5]; integrated, safety population",3.3 (17) %
same,TEAE: Hypertension,"[5]; integrated, safety population",2.2 (11) %
same,TEAE: Infections and infestations,"[5]; integrated, safety population",20.7 (106) %
same,TEAE: Influenza,"[5]; integrated, safety population",1.6 (8) %
same,"TEAE: Injury, poisoning and procedural complications","[5]; integrated, safety population",5.1 (26) %
same,TEAE: Insomnia,"[5]; integrated, safety population",1.0 (5) %
same,TEAE: Muscle spasms,"[5]; integrated, safety population",0.4 (2) %
same,TEAE: Musculoskeletal and connective tissue disorders,"[5]; integrated, safety population",6.8 (35) %
same,TEAE: Musculoskeletal pain,"[5]; integrated, safety population",0.8 (4) %
same,TEAE: Nasopharyngitis,"[5]; integrated, safety population",2.7 (14) %
same,TEAE: Nausea,"[5]; integrated, safety population",4.7 (24) %
same,TEAE: Nervous system disorders,"[5]; integrated, safety population",6.1 (31) %
same,TEAE: Oedema peripheral,"[5]; integrated, safety population",1.8 (9) %
same,TEAE: Pain in extremity,"[5]; integrated, safety population",0.8 (4) %
same,TEAE: Pharyngolaryngeal pain,"[5]; integrated, safety population",1.2 (6) %
same,TEAE: Psychiatric disorders,"[5]; integrated, safety population",3.1 (16) %
same,TEAE: Rash,"[5]; integrated, safety population",1.0 (5) %
same,"TEAE: Respiratory, thoracic and mediastinal disorders","[5]; integrated, safety population",7.0 (36) %
same,TEAE: Sinus congestion,"[5]; integrated, safety population",1.4 (7) %
same,TEAE: Sinusitis,"[5]; integrated, safety population",2.7 (14) %
same,TEAE: Skin and subcutaneous tissue disorders,"[5]; integrated, safety population",3.5 (18) %
same,TEAE: Stomach discomfort,"[5]; integrated, safety population",1.6 (8) %
same,TEAE: Upper respiratory tract infection,"[5]; integrated, safety population",4.1 (21) %
same,TEAE: Urinary tract infection,"[5]; integrated, safety population",2.3 (12) %
same,TEAE: Vascular disorders,"[5]; integrated, safety population",2.7 (14) %
same,TEAE: Vomiting,"[5]; integrated, safety population",1.8 (9) %
same,Total Subjects With at Least One TEAE,"[5]; integrated, safety population",58.7 (300) %
